ChEMBL document CHEMBL2331140, “A novel series of tacrine-selegiline hybrids with cholinesterase and monoamine oxidase inhibition activities for the treatment of Alzheimer's disease” (Eur J Med Chem, 2013)

Legend:
[1] = molecular target: Acetylcholinesterase (Electrophorus electricus, UniProt O42275)
Description: Inhibition of electric eel AChE using acetylthiocholine chloride as substrate after 15 mins by Ellman's method

[2] = molecular target: Cholinesterase (Equus caballus, UniProt P81908)
Description: Inhibition of horse serum BChE using butyrylthiocholine chloride as substrate after 15 mins by Ellman's method

[3] = molecular target: T1, Amine oxidase [flavin-containing] A (Homo sapiens, UniProt P21397)
T1 sequence (P21397 whole entry): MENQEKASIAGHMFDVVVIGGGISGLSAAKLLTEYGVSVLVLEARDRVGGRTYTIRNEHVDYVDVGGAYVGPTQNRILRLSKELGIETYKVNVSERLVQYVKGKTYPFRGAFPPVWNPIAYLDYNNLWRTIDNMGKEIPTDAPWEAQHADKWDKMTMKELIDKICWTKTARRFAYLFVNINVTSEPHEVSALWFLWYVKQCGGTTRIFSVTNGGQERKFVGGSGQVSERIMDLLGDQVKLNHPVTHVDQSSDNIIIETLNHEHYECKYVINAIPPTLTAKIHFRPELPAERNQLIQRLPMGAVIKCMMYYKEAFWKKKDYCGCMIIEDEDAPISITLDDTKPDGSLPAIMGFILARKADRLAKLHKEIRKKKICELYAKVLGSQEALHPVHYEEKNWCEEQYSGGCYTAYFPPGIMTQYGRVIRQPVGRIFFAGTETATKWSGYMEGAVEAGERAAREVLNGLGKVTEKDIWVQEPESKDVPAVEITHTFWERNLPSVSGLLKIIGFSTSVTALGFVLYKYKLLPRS
Description: Inhibition of recombinant human MAO-A using p-tyramine substrate preincubated for 15 mins before substrate addition measured after 20 mins by fluorescence assay

[4] = molecular target: T2, Amine oxidase [flavin-containing] B (Homo sapiens, UniProt P27338)
T2 sequence (P27338 whole entry): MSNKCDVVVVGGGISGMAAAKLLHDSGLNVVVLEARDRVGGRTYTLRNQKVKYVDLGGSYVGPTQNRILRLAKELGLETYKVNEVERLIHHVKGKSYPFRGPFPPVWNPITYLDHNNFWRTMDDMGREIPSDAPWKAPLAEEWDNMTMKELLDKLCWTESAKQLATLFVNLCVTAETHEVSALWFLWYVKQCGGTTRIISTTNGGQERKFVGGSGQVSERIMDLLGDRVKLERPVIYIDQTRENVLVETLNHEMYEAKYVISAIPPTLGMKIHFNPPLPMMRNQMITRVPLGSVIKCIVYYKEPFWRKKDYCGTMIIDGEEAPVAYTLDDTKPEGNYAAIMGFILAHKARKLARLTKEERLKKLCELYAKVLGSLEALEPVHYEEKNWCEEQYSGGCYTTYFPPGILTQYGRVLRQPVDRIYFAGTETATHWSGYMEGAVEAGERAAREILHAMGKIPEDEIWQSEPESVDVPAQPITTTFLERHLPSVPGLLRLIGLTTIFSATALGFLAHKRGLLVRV
Description: Inhibition of recombinant human MAO-B using p-benzylamine substrate preincubated for 15 mins before substrate addition measured after 20 mins by fluorescence assay

[5] = Selectivity index, ratio of IC50 for recombinant human MAO-A to IC50 for recombinant human MAO-B
[6] = molecular target: T2, Amine oxidase [flavin-containing] B; settings: 20 min, read-out: INH
[7] = molecular target: T2, Amine oxidase [flavin-containing] B; settings: read-out: INH

Acetylcholinesterase, sequence (O42275 whole entry): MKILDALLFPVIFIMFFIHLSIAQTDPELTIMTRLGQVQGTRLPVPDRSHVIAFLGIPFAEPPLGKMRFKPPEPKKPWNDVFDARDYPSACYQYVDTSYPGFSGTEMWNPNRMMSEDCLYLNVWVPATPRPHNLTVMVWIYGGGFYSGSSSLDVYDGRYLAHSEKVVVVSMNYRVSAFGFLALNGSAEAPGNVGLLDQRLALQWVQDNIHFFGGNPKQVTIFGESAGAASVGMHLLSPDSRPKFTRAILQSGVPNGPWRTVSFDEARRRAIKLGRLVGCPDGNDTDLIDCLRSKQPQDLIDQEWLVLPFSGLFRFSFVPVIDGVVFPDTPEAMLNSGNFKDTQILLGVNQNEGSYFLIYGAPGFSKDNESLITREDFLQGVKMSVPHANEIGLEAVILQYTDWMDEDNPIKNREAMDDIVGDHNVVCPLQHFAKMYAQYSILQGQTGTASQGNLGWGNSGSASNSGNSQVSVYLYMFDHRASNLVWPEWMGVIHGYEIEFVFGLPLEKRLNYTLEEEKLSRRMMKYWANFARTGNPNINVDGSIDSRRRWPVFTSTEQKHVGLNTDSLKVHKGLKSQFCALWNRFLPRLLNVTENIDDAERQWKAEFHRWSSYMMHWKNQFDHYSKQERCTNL
Cholinesterase, sequence (P81908 whole entry): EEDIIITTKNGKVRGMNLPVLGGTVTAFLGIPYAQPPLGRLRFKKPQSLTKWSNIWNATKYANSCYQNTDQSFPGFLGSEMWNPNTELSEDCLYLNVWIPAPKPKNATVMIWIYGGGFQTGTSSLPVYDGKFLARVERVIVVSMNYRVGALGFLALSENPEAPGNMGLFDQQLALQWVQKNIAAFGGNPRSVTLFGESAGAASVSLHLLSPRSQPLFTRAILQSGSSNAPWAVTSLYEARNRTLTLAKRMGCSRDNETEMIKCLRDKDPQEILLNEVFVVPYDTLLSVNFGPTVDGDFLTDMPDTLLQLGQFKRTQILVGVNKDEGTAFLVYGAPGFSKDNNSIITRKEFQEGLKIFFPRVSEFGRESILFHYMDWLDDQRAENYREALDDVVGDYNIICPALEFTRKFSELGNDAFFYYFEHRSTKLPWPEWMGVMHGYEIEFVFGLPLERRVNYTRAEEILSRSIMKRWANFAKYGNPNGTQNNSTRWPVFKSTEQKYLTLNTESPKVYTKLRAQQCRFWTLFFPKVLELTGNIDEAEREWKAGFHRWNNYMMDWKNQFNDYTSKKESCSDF

## C#CCN(C)[C@H](C)Cc1ccc(OCCCCCCNc2c3c(nc4ccccc24)CCCC3)cc1
[1]
  IC50: 138 nM
[2]
  IC50: 16.1 nM
[3]
  IC50: 398 nM
[4]
  IC50: 209 nM
[5]
  Ratio IC50: 1.9

## C#CCN(C)[C@H](C)Cc1ccc(OCCCCCCCCNc2c3c(nc4ccccc24)CCCC3)cc1
[1]
  IC50: 147 nM
[2]
  IC50: 35.5 nM
[3]
  IC50: 591 nM
[4]
  IC50: 167 nM
[5]
  Ratio IC50: 3.5

## C#CCN(C)[C@H](C)Cc1ccc(OCCCNc2c3c(nc4cc(Cl)ccc24)CCCC3)cc1
[1]
  IC50: 14.2 nM
[2]
  IC50: 66 nM
[3]
  IC50: 9050 nM
[4]
  IC50: 11100 nM
[5]
  Ratio IC50: 0.8

## C#CCN(C)[C@H](C)Cc1ccc(OCCCCCNc2c3c(nc4cc(Cl)ccc24)CCCC3)cc1
[1]
  IC50: 82 nM
[2]
  IC50: 18.6 nM
[3]
  IC50: 2860 nM
[4]
  IC50: 6210 nM
[5]
  Ratio IC50: 0.5

## C#CCN(CCCCCCNc1c2c(nc3ccccc13)CCCC2)[C@H](C)Cc1ccc(OC)cc1
[1]
  IC50: 456 nM
[2]
  IC50: 28.7 nM
[3]
  IC50: 33800 nM
[4]
  IC50: 18100 nM
[5]
  Ratio IC50: 1.9

## C#CCN(C)[C@H](C)Cc1ccc(OCCCCCCCCCCNc2c3c(nc4ccccc24)CCCC3)cc1
[1]
  IC50: 23.2 nM
[2]
  IC50: 2.03 nM
[3]
  IC50: 313 nM
[4]
  IC50: 346 nM
[5]
  Ratio IC50: 0.9

## C#CCN(C)[C@H](C)Cc1ccc(OCCCCCNc2c3c(nc4ccccc24)CCCC3)cc1
[1]
  IC50: 77.6 nM
[2]
  IC50: 23.5 nM
[3]
  IC50: 1260 nM
[4]
  IC50: 2400 nM
[5]
  Ratio IC50: 0.5

## C#CCN(C)[C@H](C)Cc1ccc(OCCCNc2c3c(nc4ccccc24)CCCC3)cc1
[1]
  IC50: 36.1 nM
[2]
  IC50: 41.4 nM
[3]
  IC50: 43400 nM
[4]
  IC50: 4460 nM
[5]
  Ratio IC50: 9.7

## C#CCN(C)[C@H](C)Cc1ccc(OCCNc2c3c(nc4ccccc24)CCCC3)cc1
[1]
  IC50: 83.1 nM
[2]
  IC50: 50.6 nM
[3]
  IC50: 4860 nM
[4]
  IC50: 693 nM
[5]
  Ratio IC50: 7

## C#CCN(C)[C@H](C)Cc1ccc(OCCCCCCCCCNc2c3c(nc4ccccc24)CCCC3)cc1
[1]
  IC50: 22.6 nM
[2]
  IC50: 9.37 nM
[6]
  inhibition at 0.2 µM: 70.8%
[7]
  inhibition at 0.2 µM: 81.6%

## C#CCN(C)[C@H](C)Cc1ccc(OCCCCCCCCNc2c3c(nc4cc(Cl)ccc24)CCCC3)cc1
[1]
  IC50: 55.4 nM
[2]
  IC50: 17.6 nM
[3]
  IC50: 193 nM
[4]
  IC50: 129 nM
[5]
  Ratio IC50: 1.5

## C#CCN(C)[C@H](C)Cc1ccc(OCCCCCCNc2c3c(nc4cc(Cl)ccc24)CCCC3)cc1
[1]
  IC50: 79.3 nM
[2]
  IC50: 18.8 nM
[3]
  IC50: 521 nM
[4]
  IC50: 519 nM
[5]
  Ratio IC50: 1

## C#CCN(C)[C@H](C)Cc1ccc(OCCCCNc2c3c(nc4ccccc24)CCCC3)cc1
[1]
  IC50: 53 nM
[2]
  IC50: 39.6 nM
[3]
  IC50: 7000 nM
[4]
  IC50: 8550 nM
[5]
  Ratio IC50: 0.8
